ChEMBL document CHEMBL3885861, “Open TG-GATES”

Species on record: Rattus norvegicus
Test: Open TG-GATES - Regimen: Single
Assay type: toxicity, organism-based, Sprague-Dawley
Set-up: regimen Single, gender Male, age 6 weeks
Conditions: in vivo, po, route gavage; for APTT / Bas / Eos / Fbg / Hb / Ht / Lym / MCH / MCHC / MCV / Mono / Neu / PT / Plat / RBC / Ret / WBC: tissue Blood; for KIDNEY_L / KIDNEY_R / KIDNEY_TOTAL: tissue Kidney; for LIVER: tissue Liver; for ALP / ALT / AST / BUN / CRE / DBIL / GLC / K / Na / PL / RALB / TBIL / TC / TG / TP / gamma-GTP: tissue Plasma
[1] = 75 mg/kg, 3 h, dose level Middle
[2] = 75 mg/kg, 6 h, dose level Middle
[3] = 75 mg/kg, 9 h, dose level Middle
[4] = 75 mg/kg, 24 h, dose level Middle
[5] = 250 mg/kg, 3 h, dose level High
[6] = 250 mg/kg, 6 h, dose level High
[7] = 250 mg/kg, 9 h, dose level High
[8] = 250 mg/kg, 24 h, dose level High

CN1C(=O)CN=C(c2ccccc2)c2cc(Cl)ccc21 [DIAZEPAM]
TERMINAL_BW [1]: 217.1 g | APTT [1]: 15.6 s | Bas [1]: 0% | Eos [1]: 1.2% | Fbg [1]: 212.4 mg/dL | Hb [1]: 13.8 g/dL | Ht [1]: 41.7% | Lym [1]: 77.2% | MCH [1]: 22.1 pg | MCHC [1]: 33.1% | MCV [1]: 66.8 fL | Mono [1]: 6.2% | Neu [1]: 15.6% | PT [1]: 12.7 s | Plat [1]: 103.8 x10_4/uL | RBC [1]: 624.4 x10_4/ul | Ret [1]: 8.2% | WBC [1]: 74.8 x10_2/uL | KIDNEY_L [1]: 1 g | KIDNEY_R [1]: 1 g | KIDNEY_TOTAL [1]: 2 g | LIVER [1]: 10.1 g | ALP [1]: 916 IU/L | ALT [1]: 31.2 IU/L | AST [1]: 62.6 IU/L | BUN [1]: 12 mg/dL | CRE [1]: 0.5 mg/dL | DBIL [1]: 0.028 mg/dL | GLC [1]: 187.6 mg/dL | K [1]: 5.1 meq/L | Na [1]: 139.6 meq/L | PL [1]: 133 mg/dL | RALB [1]: 3.9 g/dL | TBIL [1]: 0.4 mg/dL | TC [1]: 73 mg/dL | TG [1]: 46.8 mg/dL | TP [1]: 5.5 g/dL | gamma-GTP [1]: 1.6 IU/L | TERMINAL_BW [2]: 213.3 g | APTT [2]: 16.5 s | Bas [2]: 0% | Eos [2]: 0.8% | Fbg [2]: 222.8 mg/dL | Hb [2]: 13.8 g/dL | Ht [2]: 41.9% | Lym [2]: 79.2% | MCH [2]: 22.3 pg | MCHC [2]: 33.1% | MCV [2]: 67.3 fL | Mono [2]: 7.2% | Neu [2]: 13.2% | PT [2]: 12.1 s | Plat [2]: 105.5 x10_4/uL | RBC [2]: 621.2 x10_4/ul | Ret [2]: 8.1% | WBC [2]: 115.9 x10_2/uL | KIDNEY_L [2]: 1 g | KIDNEY_R [2]: 1 g | KIDNEY_TOTAL [2]: 2 g | LIVER [2]: 10.3 g | ALP [2]: 899 IU/L | ALT [2]: 30.4 IU/L | AST [2]: 59 IU/L | BUN [2]: 13 mg/dL | CRE [2]: 0.5 mg/dL | DBIL [2]: 0.02 mg/dL | GLC [2]: 198.2 mg/dL | K [2]: 5.5 meq/L | Na [2]: 139.6 meq/L | PL [2]: 147.8 mg/dL | RALB [2]: 3.8 g/dL | TBIL [2]: 0.4 mg/dL | TC [2]: 77.4 mg/dL | TG [2]: 78.2 mg/dL | TP [2]: 5.8 g/dL | gamma-GTP [2]: 1.6 IU/L | TERMINAL_BW [3]: 215.6 g | APTT [3]: 16.4 s | Bas [3]: 0% | Eos [3]: 0.8% | Fbg [3]: 213.8 mg/dL | Hb [3]: 13.9 g/dL | Ht [3]: 41.8% | Lym [3]: 80.2% | MCH [3]: 21.1 pg | MCHC [3]: 33.1% | MCV [3]: 63.8 fL | Mono [3]: 5.4% | Neu [3]: 13.8% | PT [3]: 12.4 s | Plat [3]: 101.8 x10_4/uL | RBC [3]: 655.6 x10_4/ul | Ret [3]: 8.2% | WBC [3]: 90.1 x10_2/uL | KIDNEY_L [3]: 1 g | KIDNEY_R [3]: 1 g | KIDNEY_TOTAL [3]: 1.9 g | LIVER [3]: 9.7 g | ALP [3]: 771 IU/L | ALT [3]: 33 IU/L | AST [3]: 62.8 IU/L | BUN [3]: 14.2 mg/dL | CRE [3]: 0.6 mg/dL | DBIL [3]: 0.048 mg/dL | GLC [3]: 208 mg/dL | K [3]: 4.5 meq/L | Na [3]: 140 meq/L | PL [3]: 143.8 mg/dL | RALB [3]: 3.8 g/dL | TBIL [3]: 0.4 mg/dL | TC [3]: 71 mg/dL | TG [3]: 80.6 mg/dL | TP [3]: 5.7 g/dL | gamma-GTP [3]: 1.4 IU/L | TERMINAL_BW [4]: 230.6 g | APTT [4]: 16.2 s | Bas [4]: 0% | Eos [4]: 0.8% | Fbg [4]: 208.2 mg/dL | Hb [4]: 13.6 g/dL | Ht [4]: 40.9% | Lym [4]: 79.4% | MCH [4]: 21.6 pg | MCHC [4]: 33.2% | MCV [4]: 65.1 fL | Mono [4]: 5.6% | Neu [4]: 14% | PT [4]: 12.3 s | Plat [4]: 103.8 x10_4/uL | RBC [4]: 628.4 x10_4/ul | Ret [4]: 8% | WBC [4]: 115 x10_2/uL | KIDNEY_L [4]: 1 g | KIDNEY_R [4]: 1.1 g | KIDNEY_TOTAL [4]: 2.1 g | LIVER [4]: 11.2 g | ALP [4]: 921 IU/L | ALT [4]: 37.2 IU/L | AST [4]: 64 IU/L | BUN [4]: 17.8 mg/dL | CRE [4]: 0.6 mg/dL | DBIL [4]: 0.012 mg/dL | GLC [4]: 199 mg/dL | K [4]: 5.1 meq/L | Na [4]: 139.4 meq/L | PL [4]: 141.6 mg/dL | RALB [4]: 4 g/dL | TBIL [4]: 0.4 mg/dL | TC [4]: 75.6 mg/dL | TG [4]: 97.4 mg/dL | TP [4]: 5.8 g/dL | gamma-GTP [4]: 1.2 IU/L | TERMINAL_BW [5]: 215.9 g | APTT [5]: 16.1 s | Bas [5]: 0% | Eos [5]: 1% | Fbg [5]: 213.4 mg/dL | Hb [5]: 13.6 g/dL | Ht [5]: 41% | Lym [5]: 75.8% | MCH [5]: 22.1 pg | MCHC [5]: 33.1% | MCV [5]: 66.7 fL | Mono [5]: 5.6% | Neu [5]: 17.6% | PT [5]: 12.7 s | Plat [5]: 109.5 x10_4/uL | RBC [5]: 615 x10_4/ul | Ret [5]: 8.8% | WBC [5]: 72.4 x10_2/uL | KIDNEY_L [5]: 1 g | KIDNEY_R [5]: 1 g | KIDNEY_TOTAL [5]: 2 g | LIVER [5]: 10.3 g | ALP [5]: 734 IU/L | ALT [5]: 34.2 IU/L | AST [5]: 67.4 IU/L | BUN [5]: 12.2 mg/dL | CRE [5]: 0.5 mg/dL | DBIL [5]: 0.028 mg/dL | GLC [5]: 196.2 mg/dL | K [5]: 4.7 meq/L | Na [5]: 140 meq/L | PL [5]: 144.4 mg/dL | RALB [5]: 3.7 g/dL | TBIL [5]: 0.4 mg/dL | TC [5]: 79.4 mg/dL | TG [5]: 64.2 mg/dL | TP [5]: 5.7 g/dL | gamma-GTP [5]: 1.4 IU/L | TERMINAL_BW [6]: 216.7 g | APTT [6]: 16.1 s | Bas [6]: 0% | Eos [6]: 0.8% | Fbg [6]: 240.4 mg/dL | Hb [6]: 14.3 g/dL | Ht [6]: 43.4% | Lym [6]: 77.2% | MCH [6]: 21.7 pg | MCHC [6]: 32.9% | MCV [6]: 65.9 fL | Mono [6]: 6.4% | Neu [6]: 16% | PT [6]: 12.3 s | Plat [6]: 120.4 x10_4/uL | RBC [6]: 659.8 x10_4/ul | Ret [6]: 8.4% | WBC [6]: 85.8 x10_2/uL | KIDNEY_L [6]: 1 g | KIDNEY_R [6]: 1 g | KIDNEY_TOTAL [6]: 2 g | LIVER [6]: 10.3 g | ALP [6]: 823.6 IU/L | ALT [6]: 27.8 IU/L | AST [6]: 68 IU/L | BUN [6]: 15.8 mg/dL | CRE [6]: 0.6 mg/dL | DBIL [6]: 0.008 mg/dL | GLC [6]: 210.6 mg/dL | K [6]: 5.6 meq/L | Na [6]: 141.6 meq/L | PL [6]: 161 mg/dL | RALB [6]: 4.1 g/dL | TBIL [6]: 0.5 mg/dL | TC [6]: 85.6 mg/dL | TG [6]: 74.4 mg/dL | TP [6]: 6.2 g/dL | gamma-GTP [6]: 1.8 IU/L | TERMINAL_BW [7]: 217 g | APTT [7]: 16.2 s | Bas [7]: 0% | Eos [7]: 1% | Fbg [7]: 240.5 mg/dL | Hb [7]: 14.2 g/dL | Ht [7]: 43% | Lym [7]: 80.5% | MCH [7]: 21.8 pg | MCHC [7]: 33% | MCV [7]: 66 fL | Mono [7]: 6.2% | Neu [7]: 12% | PT [7]: 12.2 s | Plat [7]: 118.3 x10_4/uL | RBC [7]: 652.2 x10_4/ul | Ret [7]: 8.2% | WBC [7]: 104.3 x10_2/uL | KIDNEY_L [7]: 1 g | KIDNEY_R [7]: 1 g | KIDNEY_TOTAL [7]: 2 g | LIVER [7]: 10 g | ALP [7]: 725 IU/L | ALT [7]: 25.8 IU/L | AST [7]: 67 IU/L | BUN [7]: 16.5 mg/dL | CRE [7]: 0.6 mg/dL | DBIL [7]: 0.0325 mg/dL | GLC [7]: 214.8 mg/dL | K [7]: 4.8 meq/L | Na [7]: 141.8 meq/L | PL [7]: 147.5 mg/dL | RALB [7]: 3.8 g/dL | TBIL [7]: 0.4 mg/dL | TC [7]: 84.5 mg/dL | TG [7]: 70.8 mg/dL | TP [7]: 5.8 g/dL | gamma-GTP [7]: 1.2 IU/L | TERMINAL_BW [8]: 235.1 g | APTT [8]: 15.6 s | Bas [8]: 0% | Eos [8]: 0.8% | Fbg [8]: 211 mg/dL | Hb [8]: 13.5 g/dL | Ht [8]: 40.5% | Lym [8]: 75% | MCH [8]: 21.9 pg | MCHC [8]: 33.4% | MCV [8]: 65.4 fL | Mono [8]: 7.6% | Neu [8]: 16.6% | PT [8]: 12.2 s | Plat [8]: 103.7 x10_4/uL | RBC [8]: 620.4 x10_4/ul | Ret [8]: 8.3% | WBC [8]: 133.5 x10_2/uL | KIDNEY_L [8]: 1.1 g | KIDNEY_R [8]: 1.1 g | KIDNEY_TOTAL [8]: 2.2 g | LIVER [8]: 12 g | ALP [8]: 1023.4 IU/L | ALT [8]: 37 IU/L | AST [8]: 57.4 IU/L | BUN [8]: 14.4 mg/dL | CRE [8]: 0.5 mg/dL | DBIL [8]: 0.006 mg/dL | GLC [8]: 201.6 mg/dL | K [8]: 5.1 meq/L | Na [8]: 140 meq/L | PL [8]: 167.4 mg/dL | RALB [8]: 4 g/dL | TBIL [8]: 0.4 mg/dL | TC [8]: 91.6 mg/dL | TG [8]: 105.8 mg/dL | TP [8]: 5.9 g/dL | gamma-GTP [8]: 1.4 IU/L
